From patent US20180118786A1, “NOVEL lNHIBITORS OF THE ENZYME ACTIVATED FACTOR XII (FXIIA)” (ECOLE POLYTECHNIQUE FEDERALE DE LAUSANNE (EPFL), priority 2015, published 2018)
Starred links: 1 amine or outer side, 2 acyl side, 3 side chain; linkers in the order of their positions; H or OH if unused. Positions of bridges follow the written chain, without caps; N, C: chain ends. Non-standard residues stand in square brackets, D forms with d. Residues, ends and D or L forms follow the SMILES beside them. TATA = O=C(CC[*:1])N1CN(C(=O)CC[*:2])CN(C(=O)CC[*:3])C1; Phe(4-F) = N[C@@H](Cc1ccc(F)cc1)C(=O)O; β3hR = N=C(N)NCCC[C@H](N)CC(=O)O

Legend:
human β-FXIIa = molecular target: T1, human β-FXIIa (Homo sapiens, UniProt P00748); assay: Protease inhibition assay with fluorogenic substrate (Example 1); assay type: biochemical
T1 construct: human β-FXIIa, a naturally occurring proteolytic product of FXIIa comprising only the catalytic domain; purchased Molecular Innovations HFXIIAB
Experimental: The inhibitory activity of bicyclic peptides was determined by incubation with proteases and quantification of their residual activity with a fluorogenic substrate. Final concentration of human b-FXIIa (HFXIIAB; Molecular Innovations) and mouse α-FXIIa (MFXIIA; Molecular Innovations) was 10 nM. Dilutions of peptides were prepared ranging from 0.2-200 mM. Fluorescence intensity was measured with an Infinite M200Pro fluorescence plate reader (excitation at 355 nm, emission at 460 nm; Tecan, Männedorf, Switzerland). The reactions were performed at RT. Sigmoidal curves were fitted to the data using the following dose response equation wherein x=peptide concentration, y=% activity of reaction without peptide, A1=100%, A2=0%, p=1. IC50 values were derived from the fitted curve.
The inhibitory constant Ki was calculated according to the equation of Cheng and Prusoff^29 Ki=/050/(1+([S]0/Km) wherein IC50 is the functional strength of the inhibitor, [S]0 is the total substrate concentration, and Km is the Michaelis-Menten constant.

trypsin [1] = molecular target: T2, trypsin (Homo sapiens, UniProt P07477); assay: Specificity FXII618 vs CTI, trypsin; assay type: biochemical
[2] = test system: intrinsic pathway of coagulation; assay: aPTT in human plasma (Example 1); assay type: biochemical
Experimental: (§1) aPTT, PT and FXII coagulant activity (FXII:c) measurements Coagulation times (aPTT, PT) and FXIIa activity were determined in human plasma using an automated blood coagulation analyzer (Sysmex CS-5100, Siemens, Eschborn, Germany) with according to the manufacturer's instructions (Siemens). Extrinsic coagulation was triggered with Innovin® (recombinant human tissue factor, synthetic phospholipids and calcium in stabilized HEPES buffer system; Dade Behring/Simens). Intrinsic coagulation was triggered with Pathromtin* SL (Siemens). Human plasma used in this study was derived from a pool of fresh frozen plasma units provided by the Service Regional Vaudois de Transfusion Sanguine, Switzerland.
(§2) Coagulation times (aPTT, PT) and FXIIa activity were determined, at least in duplicate, in human plasma using an automated blood coagulation analyzer (Sysmex CA-7000) with standard reagents according to the manufacturer's instructions (Siemens Healthcare, Eschborn, Germany). Human plasma used in this study was derived from a pool of fresh frozen plasma units provided by the Service Regional Vaudois de Transfusion Sanguine, Switzerland.

extrinsic pathway = assay: PT in human plasma (Example 1); assay type: biochemical; details: 40 μM
Experimental: as §1, §2

FXII = molecular target: T3, FXII (Homo sapiens, UniProt P00748); assay: FXII coagulant activity (FXII:c) in human plasma; assay type: biochemical; details: 50 μM
T3 construct: from tissue; host or cells: pooled fresh frozen human plasma
T3 sequence (P00748 20-615): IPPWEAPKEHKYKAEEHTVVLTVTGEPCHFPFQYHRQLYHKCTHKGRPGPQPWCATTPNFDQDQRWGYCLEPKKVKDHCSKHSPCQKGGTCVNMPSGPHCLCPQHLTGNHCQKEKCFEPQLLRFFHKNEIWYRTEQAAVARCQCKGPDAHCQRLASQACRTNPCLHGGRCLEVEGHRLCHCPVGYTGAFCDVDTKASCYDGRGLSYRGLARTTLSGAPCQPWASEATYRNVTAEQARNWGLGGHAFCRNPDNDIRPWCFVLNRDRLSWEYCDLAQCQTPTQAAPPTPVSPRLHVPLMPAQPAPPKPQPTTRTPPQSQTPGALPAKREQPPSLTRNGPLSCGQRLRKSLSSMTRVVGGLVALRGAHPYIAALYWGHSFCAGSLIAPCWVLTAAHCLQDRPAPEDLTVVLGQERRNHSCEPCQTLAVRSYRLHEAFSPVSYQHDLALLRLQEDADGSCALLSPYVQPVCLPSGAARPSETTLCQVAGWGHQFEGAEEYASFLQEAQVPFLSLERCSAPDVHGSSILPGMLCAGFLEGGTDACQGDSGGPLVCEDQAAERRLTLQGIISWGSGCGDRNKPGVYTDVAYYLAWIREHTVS
Experimental: as §1, §2

[3] = test system: intrinsic pathway (contact activation); assay: Thrombin generation assay by CAT triggered by ellagic acid; assay type: biochemical, human; details: ellagic acid trigger, 20 μg/mL
Experimental: (§3) Thrombin generation was performed as previously described with some modifications.30 In brief, 60 μL platelet poor plasma (PPP), 20 μL FXIIa inhibitor/HA buffer (Hepes 20 mM, NaCl 140 mM, pH 7.4, 5 mg/mL BSA), and 20 μL PPP reagent, PPP LOW reagent, MP reagent or Actin FS (1:170 diluted in HA buffer) were mixed in a 96-well microtiter plate (Immulon 2HB; Thermo Fisher Scientific) and incubated for 15 min at 37° C. Thrombin generation was triggered by the addition of 20 μL of substrate/calcium chloride buffer (FLUKA) at 37° C. Samples were tested in triplicate for each condition. Fluorogenic thrombin substrate hydrolysis was measured every 20 s for 120 min on a microplate fluorometer (Fluoroskan Ascent FL; Thermo Fisher Scientific) with a 390/460-nm (excitation/emission) filter set. Data analysis was performed on the Thrombinoscope software (Synapse By). PPP reagent (TF […], PL 4 μM), PPP LOW reagent (TF […], PL 4 μM), MP reagent (PL 4 μM), thrombin calibrator and FLUKA were purchased from Synapse By.

[4] = test system: thrombin generation in platelet poor plasma; assay: Thrombin generation assay by CAT, TF-triggered or without trigger; assay type: biochemical, human; design: lag time: unit not given here
Experimental: as §3
Venous blood was collected from healthy volunteers by antecubital venipuncture with 19-gauge needles in 3,2% (w/v) citrated Monovette plastic tubes. In order to minimize contact activation, the first collection tube containing EDTA was discarded according to standard procedures. […] Blood was then processed to PPP by an initial centrifugation step at 2,000 g for 5 min followed by a second centrifugation step at 10,000 g for 10 min. Plasma aliquots were stored at −80 until analysis.

FXII activity = molecular target: T4, FXII activity (Mus musculus, UniProt Q80YC5); assay: Inhibition of FXII activity in vivo; design: species or system BALB/c mice; details: mice
T4 construct: from tissue; host or cells: plasma of BALB/c mice after injection
T4 sequence (Q80YC5 20-597): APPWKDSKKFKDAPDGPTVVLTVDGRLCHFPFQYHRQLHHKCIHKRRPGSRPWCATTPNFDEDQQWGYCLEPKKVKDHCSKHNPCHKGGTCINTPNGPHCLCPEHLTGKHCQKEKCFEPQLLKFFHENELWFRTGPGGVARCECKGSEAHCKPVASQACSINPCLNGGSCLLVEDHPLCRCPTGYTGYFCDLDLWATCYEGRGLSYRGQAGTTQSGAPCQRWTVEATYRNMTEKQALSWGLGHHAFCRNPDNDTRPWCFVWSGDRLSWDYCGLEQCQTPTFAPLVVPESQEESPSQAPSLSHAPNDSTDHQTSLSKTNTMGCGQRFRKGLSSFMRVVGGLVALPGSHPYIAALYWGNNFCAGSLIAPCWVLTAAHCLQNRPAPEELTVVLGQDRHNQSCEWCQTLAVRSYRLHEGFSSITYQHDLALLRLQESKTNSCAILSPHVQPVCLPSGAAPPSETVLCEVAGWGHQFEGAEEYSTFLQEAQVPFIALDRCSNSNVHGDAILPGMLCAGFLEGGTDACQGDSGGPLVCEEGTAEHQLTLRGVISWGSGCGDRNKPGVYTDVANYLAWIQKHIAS
Experimental: Female BALB/c mice were anesthetized with 125 mg/kg pentobarbital. […] Five minutes later, blood was collected from the vena cava at a 1:9 blood to citrate ratio. Plasma was prepared by centrifugation at 2,400 g 10 minutes at RT. FXIIa activity was assessed as described above.

[5] = test system: thrombin generation in platelet poor plasma; assay: Thrombin generation assay by CAT, TF-triggered or without trigger; assay type: biochemical, human; details: 1 pM TF, 100 μg/mL inhibitor
in vitro = details: human, plasma
Experimental: (§6) Peptide (2 μl of 2 mM in H2O) was added to 398 μl human plasma (final peptide concentration was 10 μM in 400 μl final volume). The mixture was incubated in the water bath at 37° C. At 8 different time points (0 h, 30 min, 1 h, 2 h, 4 h, 8 h, 12 h, 24 h and in some cases 48 h) a sample of 30 μl was removed, diluted to 200 μl with the same buffer used for protease inhibition assay (see above) and heat-inactivated for 20 min at 65° C. During this step proteases present in plasma are being inactivated, that would otherwise interfere with the subsequently performed enzymatic assay. […] Before analysis, plasma samples were centrifuged for 5 min at 16′000 g and the supernatant was collected. A twofold dilution series ranging from 0.0005-0.5 μM was prepared. IC50 values were derived from the fitted curve using the equation indicated above. Residual inhibition in % was calculated using the following formula: IC50, 0h/IC50, xh*100 wherein IC50, 0h is the functional strength of the inhibitor at time point 0 and IC50, xh the functional strength of inhibitor after one of the different plasma incubation period mentioned above.
(§7) The activity of the plasma proteases was heat-inactivated by incubation of the samples at 65° C. for 10 minutes.

Plasma stability assay = details: human
Experimental: as §6, §7

FXIIa = details: cited from earlier work
[6] = test system: intrinsic coagulation pathway; assay: aPTT in human plasma (Example 2); assay type: biochemical
Experimental: Coagulation times (aPTT, PT) were determined in human plasma using a blood coagulation analyzer (STart. Hemostasis coagulation analyzer, Diagnostica Stago). Extrinsic coagulation was triggered with Innovin (recombinant human tissue factor, synthetic phospholipids and calcium in stabilized HEPES buffer system; Dade Behring; Siemens). Intrinsic coagulation was triggered with Pathromtin* SL (Siemens). Pooled normal human plasma used in this study was provided by Innovative research (USA).
The ability to selectively suppress the intrinsic coagulation pathway was assessed in in vitro coagulation assays. Activated partial thromboplastin time (aPTT) and prothrombin time (PT) measure the time to coagulation upon initiation of coagulation either via the intrinsic (aPTT) or the extrinsic pathway (PT). These tests have been performed in human plasma in the presence of different concentrations of FXIIa-inhibitors. Selective FXIIa inhibition is expected to increase aPTT but not PT. […] At a concentration of 5 μM peptide inhibitor no coagulation via the intrinsic pathway occurred within 120 s. Additionally, there was a correlation between inhibitory activity against FXIIa and extent of aPTT prolongation.

[7] = test system: structurally related or functionally important proteases; assay: Specificity testing (Example 2), other proteases; assay type: biochemical, human
Experimental: (§4) For the specificity testing the following final concentrations of human serine proteases were used: tPA (Molecular Innovations) 7.5 nM, uPA (Molecular Innovations) 1.5 nM, factor XIa (Innovative Research, Novi, Mich., U.S.) 6 nM, PK (Innovative Research) 0.25 nM, thrombin (Molecular Innovations) 1 nM, plasmin (Molecular Innovations) 2.5 nM, trypsin (Molecular Innovations) 0.05 nM, factor VIIa (Haematologic Technologies Inc.) 50 nM and factor Xa (Haematologic Technologies Inc,) 6 nM.
(§5) Dilutions of peptides were prepared ranging from 0.04 to 40 μM.

trypsin [8] = molecular target: T2, trypsin; assay: Specificity testing (Example 2), trypsin; assay type: biochemical; design: purchased Molecular Innovations
Experimental: as §4, §5

[9] = absence of extrinsic- or intrinsic-specific trigger, 100 μg/mL inhibitor

Compound: CC(C)C[C@@H]1NC(=O)[C@H](CCC(N)=O)NC(=O)[C@H](CCCNC(=N)N)NC(=O)[C@@H]2CSCCC(=O)N3CN(CN(C3)C(=O)CCSC[C@H](NC(=O)[C@@H](N)CCCNC(=N)N)C(=O)N[C@@H](Cc3ccccc3)C(=O)N[C@@H](CCCNC(=N)N)C(=O)N[C@@H](CC(C)C)C(=O)N3CCC[C@H]3C(=O)N2)C(=O)CCSC[C@@H](C(=O)N[C@@H](CCCNC(=N)N)C(N)=O)NC(=O)[C@H](CCCNC(=N)N)NC1=O [FXII618]
- more potent than PCK (human β-FXIIa; compared to PCK): around 8 fold
- more potent than inhibitor 44 (human β-FXIIa; compared to small molecule FXIIa inhibitor 44): > 200 fold
- improvement in inhibiting human FXIIa (human β-FXIIa; in comparison to parent FXII516): 8 fold
- inhibition of trypsin (trypsin [1]; at a concentration as high as 1000 nM): no inhibition
- trypsin inhibition weaker compared to CTI (trypsin [1]; compared to CTI): around 100 fold
- aPTT ([2]; citrated platelet poor plasma, 100 μg/mL inhibitor): > 170 s
- aPTT ([2]; human plasma, 40 μM): > 170 s
- effect on extrinsic pathway (PT) (extrinsic pathway): without affecting the extrinsic pathway
- FXII coagulant activity (FXII:c) (FXII): < 5%
- reduction of endogenous thrombin potential (ETP) [3]: > 90%
- reduction of peak [3]: > 90%
- lag time ([4]; 0.25 pM TF, 100 μg/mL inhibitor): 12.3±0.3
- lag time [4, 9]: 55.8±3.7
- peak [4, 9]: 60.3±0.8
- effect on TF-induced thrombin generation ([4]; high concentration of TF, 100 μg/mL inhibitor): did not affect TF-induced thrombin generation
- thrombin activation ([4]; inhibitor added to whole blood immediately after sampling, no trigger): completely block thrombin activation
- PT (FXII activity; 3.5 mg/kg FXII618 combined with 3.5 mg/kg PK128): 7.1 ± 0.2 s
- FXII activity (FXII activity; 3.5 mg/kg FXII618 combined with 3.5 mg/kg PK128 r.o., blood after five minutes): 49.7+/−13.9%
- effect on thrombin generation [5]: no significant effect
- half-life at 10 μM (in vitro): 3.9 ± 1.9 h

Compound: CC(C)C[C@@H]1NC(=O)[C@H](CCC(N)=O)NC(=O)[C@H](Cc2c[nH]cn2)NC(=O)[C@@H]2CSCCC(=O)N3CN(CN(C3)C(=O)CCSC[C@H](NC(=O)[C@@H](CO)NC(=O)[C@H](N)CCCNC(=N)N)C(=O)N[C@@H](Cc3ccc(F)cc3)C(=O)N[C@@H](CCCNC(=N)N)C(=O)N[C@@H](CC(C)C)C(=O)N3CCC[C@H]3C(=O)N2)C(=O)CCSC[C@@H](C(N)=O)NC(=O)C[C@H](CCCNC(=N)N)NC1=O [JS33-R] (H-[dR][dS]C[Phe(4-F)]RLPCHQL[β3hR]C-NH2; linker 3-8-13 via TATA; N-terminus and C-terminus assumed)
- half-life at 10 μM (Plasma stability assay): 127 h

Compound: N=C(N)NCCCC(NC(=O)C(Cc1ccccc1)NC(=O)C1CCCN1)C(=O)CCl [PCK, D-Pro-Phe-Arg chloromethyl ketone, reference compound]
- IC50 (FXIIa): 180 nM

Compound: CC(C)C[C@@H]1NC(=O)[C@H](CCC(N)=O)NC(=O)[C@H](CCCNC(=N)N)NC(=O)[C@@H]2CSCCC(=O)N3CN(CN(C3)C(=O)CCSC[C@H](NC(=O)[C@@H](N)CCCNC(=N)N)C(=O)N[C@@H](Cc3ccc(F)cc3)C(=O)N[C@@H](CCCNC(=N)N)C(=O)N[C@@H](CC(C)C)C(=O)N3CCC[C@H]3C(=O)N2)C(=O)CCSC[C@@H](C(=O)N[C@@H](CCCNC(=N)N)C(N)=O)NC(=O)[C@H](CCCNC(=N)N)NC1=O [peptide 61]
- aPTT prolongation compared with peptide 1 [6]: significantly increased aPTT prolongation

Compound: CC(C)C[C@@H]1NC(=O)[C@H](CCC(N)=O)NC(=O)[C@H](CCCNC(=N)N)NC(=O)[C@@H]2CSCCC(=O)N3CN(CN(C3)C(=O)CCSC[C@H](NC(=O)[C@@H](N)CCNC(=N)N)C(=O)N[C@@H](Cc3ccc(F)cc3)C(=O)N[C@@H](CCCNC(=N)N)C(=O)N[C@@H](CC(C)C)C(=O)N3CCC[C@H]3C(=O)N2)C(=O)CCSC[C@@H](C(=O)N[C@@H](CCCNC(=N)N)C(N)=O)NC(=O)[C@H](CCCNC(=N)N)NC1=O [peptide 73]
- selectivity over other plasma proteases [7]: ≥ 11,000 fold
- inhibition of eight of the ten proteases ([7]; highest concentration tested (40 μM)): less than 20%
- aPTT prolongation compared with peptide 1 [6]: significantly increased aPTT prolongation
- half-life at 10 μM (in vitro): 15.5 ± 3.9 h
- selectivity over trypsin (trypsin [8]): 300 fold
